Patent USH1923H, “Herbicidal (oxaalkyl) phenyl-substituted heterocycles” (FMC Corporation, priority 1998, dated 2000)

What was measured:
soybean [1] = assay: preemergence herbicidal activity on soybean; assay type: in vivo, Glycine max var. Winchester; conditions: Glycine max, pre-emergence, 0.3 Kg/Ha, after 12-17 days, read-out: PREEMERGENCE HERBICIDAL ACTIVITY (% CONTROL) SOY
Method: (§1) The (oxaalkyl)phenyl-substituted heterocycles of this invention were tested for pre- and postemergence herbicidal activity using a variety of crops and weeds. The test plants included soybean (Glycine max var. Winchester),field corn (Zea mays var. Pioneer 3732), wheat (Triticum aestivum var. Lew), morningglory (Ipomea lacunosa or Ipomea hederacea), […] (Abutilon theophrasti), green foxtail (Setaria viridis), Johnsongrass (Sorghum halepense), blackgrass (Aloepecurus myosuroides), common chickweed (Stellaria media), and common cocklebur (Xanthium strumarium L.).
(§2) For preemergence testing, two disposable fiber flats (8 cm×15 cm×25 cm) for each rate of application of each candidate herbicide were filled to an approximate depth of 6.5 cm with steam-sterilized sandy loam soil. The soil was leveled and impressed with a template to provide five evenly spaced furrows 13 cm long and 0.5 cm deep in each flat. Seeds of soybean, wheat, corn, green foxtail, and johnsongrass were planted in the furrows of the first flat, and seeds of velvetleaf, morningglory, common chickweed, cocklebur, and blackgrass were planted in the furrows of the second flat. The five-row template was employed to firmly press the seeds into place. A topping soil of equal portions of sand and sandy loam soil was placed uniformly on top of each flat to a depth of approximately 0.5 cm. Flats for postemergence testing were prepared in the same manner except that they were planted 9-14 days prior to the preemergence flats and were placed in a greenhouse and watered, thus allowing the seeds to germinate and the foliage to develop.
(§3) In both pre- and postemergence tests, a stock solution of the candidate herbicide was prepared by dissolving 0.27 g of the compound in 20 mL of water/acetone (50/50) containing 0.5% v/v sorbitan monolaurate. For an application rate of 3000 g/ha of herbicide a 10 mL portion of the stock solution was diluted with water/acetone (50/50) to 45 mL.
(§4) The preemergence flats were initially subjected to a light water spray. The four flats were placed two by two along a conveyor belt (i.e., the two preemergence followed by the two postemergence flats). The conveyor belt fed under a spray nozzle mounted about ten inches above the postemergent foliage. The preemergent flats were elevated on the belt so that the soil surface was at the same level below the spray nozzle as the foliage canopy of the postemergent plants. The spray of herbicidal solution was commenced and once stabilized, the flats were passed under the spray at a speed to receive a coverage equivalent of 1000 L/ha. At this coverage the application rates are those shown in the above table for the individual herbicidal solutions. The preemergence flats were watered immediately thereafter, placed in the greenhouse and watered regularly at the soil surface. The postemergence flats were immediately placed in the green-house and not watered until 24 hours after treatment with the test solution. Thereafter they were regularly watered at ground level. After 12-17 days the plants were examined and the phytotoxicity data were recorded.
(§5) Phytotoxicity data were taken as percent control. Percent control was by a method similar to the 0 to 1 00 rating system disclosed in "Research Methods in Weed Science," 2nd ed., B. Truelove, Ed.; Southern Weed Science Society; Auburn University, Auburn, Ala., 1977.

wheat [2] = assay: preemergence herbicidal activity on wheat; assay type: in vivo, Triticum aestivum var. Lew; conditions: Triticum aestivum, pre-emergence, 0.3 Kg/Ha, after 12-17 days, read-out: PREEMERGENCE HERBICIDAL ACTIVITY (% CONTROL) WHT
Method: as §1, §2, §3, §4, §5

corn [3] = assay: preemergence herbicidal activity on corn; assay type: in vivo, Zea mays var. Pioneer 3732; conditions: Zea mays, pre-emergence, 0.3 Kg/Ha, after 12-17 days, read-out: PREEMERGENCE HERBICIDAL ACTIVITY (% CONTROL) CRN
Method: as §1, §2, §3, §4, §5

velvetleaf [4] = assay: preemergence herbicidal activity on velvetleaf; assay type: in vivo; conditions: Abutilon theophrasti, pre-emergence, 0.3 Kg/Ha, after 12-17 days, read-out: PREEMERGENCE HERBICIDAL ACTIVITY (% CONTROL) ABUTH
Method: as §1, §2, §3, §4, §5

morningglory [5] = assay: preemergence herbicidal activity on morningglory; assay type: in vivo, Ipomea lacunosa or Ipomea hederacea; conditions: Ipomoea, pre-emergence, 0.3 Kg/Ha, after 12-17 days, read-out: PREEMERGENCE HERBICIDAL ACTIVITY (% CONTROL) IPOSS
Method: as §1, §2, §3, §4, §5

chickweed [6] = assay: preemergence herbicidal activity on chickweed; assay type: in vivo; conditions: Stellaria media, pre-emergence, 0.3 Kg/Ha, after 12-17 days, read-out: PREEMERGENCE HERBICIDAL ACTIVITY (% CONTROL) STEME
Method: as §1, §2, §3, §4, §5

blackgrass [7] = assay: preemergence herbicidal activity on blackgrass; assay type: in vivo, Aloepecurus myosuroides; conditions: Alopecurus myosuroides, pre-emergence, 0.3 Kg/Ha, after 12-17 days, read-out: PREEMERGENCE HERBICIDAL ACTIVITY (% CONTROL) ALOMY
Method: as §1, §2, §3, §4, §5

green foxtail [8] = assay: preemergence herbicidal activity on green foxtail; assay type: in vivo; conditions: Setaria viridis, pre-emergence, 0.3 Kg/Ha, after 12-17 days, read-out: PREEMERGENCE HERBICIDAL ACTIVITY (% CONTROL) SETVI
Method: as §1, §2, §3, §4, §5

johnsongrass [9] = assay: preemergence herbicidal activity on johnsongrass; assay type: in vivo; conditions: Sorghum halepense, pre-emergence, 0.3 Kg/Ha, after 12-17 days, read-out: PREEMERGENCE HERBICIDAL ACTIVITY (% CONTROL) SORHA
Method: as §1, §2, §3, §4, §5

soybean [10] = assay: postemergence herbicidal activity on soybean; assay type: in vivo, Glycine max var. Winchester; conditions: Glycine max, post-emergence, 0.3 Kg/Ha, after 12-17 days, read-out: POSTEMERGENCE HERBICIDAL ACTIVITY (% CONTROL) SOY
Method: as §1, §2, §3, §4, §5

wheat [11] = assay: postemergence herbicidal activity on wheat; assay type: in vivo, Triticum aestivum var. Lew; conditions: Triticum aestivum, post-emergence, 0.3 Kg/Ha, after 12-17 days, read-out: POSTEMERGENCE HERBICIDAL ACTIVITY (% CONTROL) WHT
Method: as §1, §2, §3, §4, §5

corn [12] = assay: postemergence herbicidal activity on corn; assay type: in vivo, Zea mays var. Pioneer 3732; conditions: Zea mays, post-emergence, 0.3 Kg/Ha, after 12-17 days, read-out: POSTEMERGENCE HERBICIDAL ACTIVITY (% CONTROL) CRN
Method: as §1, §2, §3, §4, §5

velvetleaf [13] = assay: postemergence herbicidal activity on velvetleaf; assay type: in vivo; conditions: Abutilon theophrasti, post-emergence, 0.3 Kg/Ha, after 12-17 days, read-out: POSTEMERGENCE HERBICIDAL ACTIVITY (% CONTROL) ABUTH
Method: as §1, §2, §3, §4, §5

morningglory [14] = assay: postemergence herbicidal activity on morningglory; assay type: in vivo, Ipomea lacunosa or Ipomea hederacea; conditions: Ipomoea, post-emergence, 0.3 Kg/Ha, after 12-17 days, read-out: POSTEMERGENCE HERBICIDAL ACTIVITY (% CONTROL) IPOSS
Method: as §1, §2, §3, §4, §5

chickweed [15] = assay: postemergence herbicidal activity on chickweed; assay type: in vivo; conditions: Stellaria media, post-emergence, 0.3 Kg/Ha, after 12-17 days, read-out: POSTEMERGENCE HERBICIDAL ACTIVITY (% CONTROL) STEME
Method: as §1, §2, §3, §4, §5

cocklebur = assay: postemergence herbicidal activity on cocklebur; assay type: in vivo, Xanthium strumarium L.; conditions: Xanthium strumarium, post-emergence, 0.3 Kg/Ha, after 12-17 days, read-out: POSTEMERGENCE HERBICIDAL ACTIVITY (% CONTROL) XANPE
Method: as §1, §2, §3, §4, §5

blackgrass [16] = assay: postemergence herbicidal activity on blackgrass; assay type: in vivo, Aloepecurus myosuroides; conditions: Alopecurus myosuroides, post-emergence, 0.3 Kg/Ha, after 12-17 days, read-out: POSTEMERGENCE HERBICIDAL ACTIVITY (% CONTROL) ALOMY
Method: as §1, §2, §3, §4, §5

green foxtail [17] = assay: postemergence herbicidal activity on green foxtail; assay type: in vivo; conditions: Setaria viridis, post-emergence, 0.3 Kg/Ha, after 12-17 days, read-out: POSTEMERGENCE HERBICIDAL ACTIVITY (% CONTROL) SETVI
Method: as §1, §2, §3, §4, §5

johnsongrass [18] = assay: postemergence herbicidal activity on johnsongrass; assay type: in vivo; conditions: Sorghum halepense, post-emergence, 0.3 Kg/Ha, after 12-17 days, read-out: POSTEMERGENCE HERBICIDAL ACTIVITY (% CONTROL) SORHA
Method: as §1, §2, §3, §4, §5

Structure (SMILES)	activity at 300 g/ha (soybean [1])	activity at 300 g/ha (wheat [2])	activity at 300 g/ha (corn [3])	activity at 300 g/ha (velvetleaf [4])	activity at 300 g/ha (morningglory [5])	activity at 300 g/ha (chickweed [6])	activity at 300 g/ha (blackgrass [7])	activity at 300 g/ha (green foxtail [8])	activity at 300 g/ha (johnsongrass [9])	activity at 300 g/ha (soybean [10])	activity at 300 g/ha (wheat [11])	activity at 300 g/ha (corn [12])	activity at 300 g/ha (velvetleaf [13])	activity at 300 g/ha (morningglory [14])	activity at 300 g/ha (chickweed [15])	activity at 300 g/ha (cocklebur)	activity at 300 g/ha (blackgrass [16])	activity at 300 g/ha (green foxtail [17])	activity at 300 g/ha (johnsongrass [18])
Cc1nn(-c2cc(CC(Cl)COC(=O)NC(C)C)c(Cl)cc2F)c(=O)n1C(F)F (stereo not drawn) [Compound 34]	80%	50%	70%	100%	100%	100%	60%	100%	100%	90%	50%	85%	100%	90%	75%	100%	65%	100%	95%
Cc1nn(-c2cc(CC(Cl)COC(=O)NC3CCCCC3)c(Cl)cc2F)c(=O)n1C(F)F (stereo not drawn) [Compound 35]	30%	20%	10%	100%	90%	100%	30%	100%	50%	80%	25%	70%	100%	80%	30%	100%	30%	80%	60%
CCCCCCNC(=O)OCC(Cl)Cc1cc(-n2nc(C)n(C(F)F)c2=O)c(F)cc1Cl (stereo not drawn) [Compound 36]	70%	30%	30%	100%	100%	60%	50%	100%	70%	80%	30%	80%	100%	100%	100%	100%	50%	80%	75%
